Laboratory results: patent publication US5621133A (priority 1995, dated 1997)
pEC50, pKi: −log10 of the molar value. Counter-ions that a name gives are not always drawn. Like-named read-outs stand apart in the source and are kept apart here.

Experiments:
dopamine D-2 receptor = dopamine D-2 receptor (Rattus norvegicus, UniProt P61169); assay: biochemical; type: binding; details: rat caudate, [125I]-p-aminophenylethyl spiroperidol; read-out: D-2 Ki
Procedure: Homogenized rat caudate was the source of the D-2 receptors. […] The molar affinity of the compound for the receptor binding site was calculated by the same method used for the D-1 receptor assay, assuming a competitive interaction between the compound and the radiolabeled ligand.

dopamine D-1 receptor [1] = target: T1, dopamine D-1 receptor (Rattus norvegicus, UniProt P18901); details: read-out: D-1 Ki; rat caudate, [125I]SCH-23982
T1 sequence (P18901 whole entry): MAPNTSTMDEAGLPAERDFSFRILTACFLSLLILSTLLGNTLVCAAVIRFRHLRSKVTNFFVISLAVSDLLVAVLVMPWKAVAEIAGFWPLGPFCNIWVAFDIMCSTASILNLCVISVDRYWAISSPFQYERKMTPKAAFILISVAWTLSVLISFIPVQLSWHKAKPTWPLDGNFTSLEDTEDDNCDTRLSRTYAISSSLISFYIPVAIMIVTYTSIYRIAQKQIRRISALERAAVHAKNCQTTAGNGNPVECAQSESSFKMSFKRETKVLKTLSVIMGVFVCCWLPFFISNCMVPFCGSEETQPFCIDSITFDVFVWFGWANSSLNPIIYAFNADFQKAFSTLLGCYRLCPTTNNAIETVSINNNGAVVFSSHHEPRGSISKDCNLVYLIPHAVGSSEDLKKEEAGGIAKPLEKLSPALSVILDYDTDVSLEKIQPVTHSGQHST
Source text: (§1) The compounds compete with the radiolabeled ligand for occupancy of the receptors and the molar potency of each compound was quantified.
(§2) The Ki values are inversely proportional to the affinity of the compound for the receptor.

dopamine D-1 receptor [2] = details: for Intrinsic Activity (adenylate cyclase assay): dopamine = 100, goldfish retina or rat striatum; for pEC50: read-out: EC50 (agonist activity in adenylate cyclase assay), tissue from goldfish retina or rat striatum
Procedure: In order to determine agonist activity, cell-free tissue homogenates are incubated in an ionic buffer solution containing ATP and the compound being evaluated. The tissue was obtained from either goldfish retina or rat striatum.

[3] = test system: striatal dopamine receptors; assay: Rotation behavior assay of in vivo activity (6-hydroxydopamine lesioned rat rotational model); details: for ED50 s.c. (rotation behavior): injected subcutaneously
dopamine D-1 receptor [4] = target: T1, dopamine D-1 receptor; assay: biochemical; details: D-1 Ki, rat caudate, [125I]SCH-23982
Source text: as §1, §2

dopamine D-2 receptor, sequence (P61169 whole entry): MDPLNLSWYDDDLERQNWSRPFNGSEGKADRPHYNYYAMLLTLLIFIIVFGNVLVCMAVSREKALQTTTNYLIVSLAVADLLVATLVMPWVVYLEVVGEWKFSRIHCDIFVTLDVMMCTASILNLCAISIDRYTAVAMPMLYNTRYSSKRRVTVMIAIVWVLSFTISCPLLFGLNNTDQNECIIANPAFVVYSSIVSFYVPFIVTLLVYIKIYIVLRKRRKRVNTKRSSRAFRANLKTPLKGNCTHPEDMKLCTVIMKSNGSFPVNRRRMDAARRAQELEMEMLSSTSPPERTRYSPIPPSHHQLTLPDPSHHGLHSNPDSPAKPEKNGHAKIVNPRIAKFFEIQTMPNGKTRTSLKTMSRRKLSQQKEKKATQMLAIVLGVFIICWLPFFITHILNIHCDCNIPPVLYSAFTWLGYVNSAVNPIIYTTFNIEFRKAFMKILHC

Compound | pKi (dopamine D-2 receptor) | pKi (dopamine D-1 receptor [1]) | Intrinsic Activity (adenylate cyclase assay) (dopamine D-1 receptor [2]) | pEC50 (dopamine D-1 receptor [2]) | pKi (dopamine D-1 receptor [4]) | Intrinsic Activity (adenylate cyclase assay) (dopamine D-1 receptor [2]; Hydrobromide) | pEC50 (dopamine D-1 receptor [2]; Hydrobromide) | ED50 s.c. (rotation behavior) [3] [µmol/kg] | ED50 oral (rotation behavior) [3] [µmol/kg]
NC[C@@H]1O[C@H](CCOCc2ccccc2)Cc2c1ccc(O)c2O (relative stereo) [Example 77] | 6.30 | 5.64 | 107 | 7.03 |  |  |  |  | 
CCCCCC(NC(C)=O)[C@@H]1Cc2c(ccc(O)c2O)[C@H](CN)O1 (relative stereo) [Example 162] | 6.15 | 6.17 | 107 | 6.16 |  |  |  |  | 
CCCCCC(NC(C)=O)[C@@H]1Cc2c(ccc(O)c2O)[C@H](CN)O1 (relative stereo) [Example 163] | 6.08 | 6.10 | 140 | 5.84 |  |  |  |  | 
CCCCCC(NC(=O)CCl)[C@@H]1Cc2c(ccc(O)c2O)[C@H](CN)O1 (relative stereo) [Example 165] | 4.77 | 5.74 | 105 | 7.51 |  |  |  |  | 
Oc1ccc2c(c1O)C[C@H](c1ccccc1)C[C@H]2[C@H]1CCCN1 (relative stereo) [Example 181, [1,3-cis]5.6-Dihydroxy-3-phenyl-1-(2'-pyrrolidinyl)-1,2,3,4-tetrahydronaph-thalene Hydrobromide] | 5.34 | 6.41 | 65 | 7.77 |  |  |  |  | 
CN(C)C[C@@H]1O[C@H](c2ccccc2)Cc2c1ccc(O)c2O (relative stereo) [Example 227] | < 5.00 |  | 94 | 6.43 | 7.70 |  |  | 0.045 | 
NC[C@@H]1C[C@H](C23CC4CC(CC(C4)C2)C3)Cc2c1ccc(O)c2O (relative stereo) [Example 235] | < 5.00 | 6.26 | 83 | 6.52 |  |  |  |  | 
C=CCNC[C@H]1O[C@@H](c2ccccc2)Cc2c1ccc(O)c2O (stereo in doubt) [Example 126] | 5.18 |  | 94 | 7.34 | 6.80 |  |  | 0.16 | 28
CC(C)OC(=O)CCC(=O)Oc1ccc2c(c1OC(=O)CCC(=O)OC(C)C)CC(c1ccccc1)C=C2CN (stereo not shown) [Example 24] | < 5.00 | 6.05 | 71 | 6.30 |  |  |  |  | 
NCC1c2ccc(O)c(O)c2CC(c2ccccc2)C1CCO (stereo not drawn) [Example 45, [1,2-trans]1-Aminomethyl-5,6-dihydroxy-2-(2'-hydroxy-1'-ethyl)-3-phenyl-1,2,3,4-tetrahydronaphthalene Formic Acid Salt] | < 5.00 | 5.34 | 62 | 7.22 |  |  |  |  | 
C[C@H](N)C1OC(c2ccccc2)Cc2c1ccc(O)c2O (stereo partly drawn) [Example 108, [1,3-cis]1-(1S-(1-Amino)ethyl)-5,6-dihydroxy-3-phenyl-3,4-dihydro-1H-2-benzopyran] | < 5.00 | 5.39 |  |  |  |  |  |  | 
CNC[C@@H]1O[C@H](C(C)(C)C)Cc2c1ccc(O)c2O.Cl [Example 112, [1R,3S]3-t-butyl-5,6-dihydroxy-1-methylaminomethyl-3,4-dihydro-1H-2-benzopyran hydrochloride] | 5.82 |  | 124 | 8.10 | 7.42 |  |  | 0.10 | 1.0
CNC[C@@H]1O[C@H](c2ccccc2)Cc2c1ccc(O)c2O [Example 138] | 5.66 |  | 157 | 7.29 | 8.52 |  |  | 0.15 | 
CNC[C@@H]1O[C@H](C23CC4CC(CC(C4)C2)C3)Cc2c1cc(F)c(O)c2O [Example 145] | 4.92 |  | 49 | 7.42 | 7.17 |  |  | 0.31 | 
CN(C)C[C@@H]1O[C@H](C(C)(C)C)Cc2c1ccc(O)c2O [Example 147] | < 5.00 |  | 89 | 7.18 | 6.40 |  |  | 0.05 | 
CN(C)C[C@@H]1O[C@H](C23CC4CC(CC(C4)C2)C3)Cc2c1ccc(O)c2O [Example 148] | 5.34 |  | 79 | 7.66 | 7.19 |  |  | 0.12 | 11
CCCNCC1=CC(c2ccccc2)Cc2c1ccc(O)c2O (stereo not shown) [Example 151] | 5.60 | 5.24 | 58 | 5.15 |  |  |  |  | 
CCCN(CCC)CC1=CC(c2ccccc2)Cc2c1ccc(O)c2O (stereo not shown) [Example 152] | 4.92 | 4.23 |  |  |  |  |  |  | 
Br.CN1CCC2=C(C1)c1ccc(O)c(O)c1CC2c1ccccc1 (stereo not shown) [Example 210, 2-Methyl-5-phenyl-1,2,3,4,5,6-hexahydrobenzo[h]isoquinoline-7,8-diol Hydrobromide] | 5.89 |  | 98 |  | 7.33 |  | 7.28 | 0.005 | 1.6
CNCC1OC(CC(C)(C)C)Cc2c1ccc(O)c2O (stereo not shown) [Example 217] | 6.00 |  | 108 | 7.70 | 7.52 |  |  | 0.12 | 
CNCC1OC(CC2CCCC2)Cc2c1ccc(O)c2O (stereo not shown) [Example 218] | 6.39 |  | 115 | 8.00 | 7.70 |  |  | 0.93 | 
CN(C)CC1OC(CC(C)(C)C)Cc2c1ccc(O)c2O (stereo not shown) [Example 220] | 5.51 |  | 72 | 6.40 | 6.39 |  |  | 0.52 | 
NCC1=CC(C23CC4CC(CC(C4)C2)C3)Cc2c1ccc(O)c2O (stereo not shown) [Example 231] | < 5.00 |  | 85 | 7.05 | 6.52 |  |  | > 3 | 

Further lines, with some results ahead:

pKi (dopamine D-2 receptor) | pKi (dopamine D-1 receptor [1]) | Intrinsic Activity (adenylate cyclase assay) (dopamine D-1 receptor [2]) | pEC50 (dopamine D-1 receptor [2]) | pKi (dopamine D-1 receptor [4]) | Intrinsic Activity (adenylate cyclase assay) (dopamine D-1 receptor [2]; Hydrobromide) | pEC50 (dopamine D-1 receptor [2]; Hydrobromide) | Compound | ED50 s.c. (rotation behavior) [3] [µmol/kg] | ED50 oral (rotation behavior) [3] [µmol/kg]
< 5.00 |  | 71 | 6.55 | 7.52 |  |  | CN(C)C[C@@H]1O[C@H](C2CCCCC2)Cc2c1ccc(O)c2O (relative stereo) [Example 228] | 0.1 | 
 | 5.72 | 92 | 6.64 |  |  |  | CCC1Cc2c(ccc(O)c2O)C(CN)O1 (stereo not shown) [Example 67] |  | 
< 5.00 |  | 113 | 6.96 | 6.33 |  |  | NCC1OC2(CCCCCC2)Cc2c1ccc(O)c2O (stereo not shown) [Example 93] | 0.9 | 
5.85 |  |  |  | 7.27 | 83 | 7.48 | Oc1ccc2c(c1O)CC1(CCCCCC1)C1=C2CNCC1 [Example 199, Spiro[cycloheptane-1,5'-(1',2',3',4',5',6'-hexahydrobenzo[h]isoquinoline)]-7',8'-diol Hydrobromide] | 1.5 | 31
5.82 |  | 110 | 7.32 | 6.80 |  |  | Oc1ccc2c(c1O)CC1(CCCC1)C1=C2CNCC1 [Example 204] | 1.1 | 18
5.82 |  | 100 | 7.17 | 6.68 |  |  | Oc1ccc2c(c1O)CC1(CCCCC1)C1=C2CNCC1 [Example 205] | 3.4 | 
5.28 |  | 106 | 7.70 | 7.70 |  |  | CC(C)(C)CC1Cc2c(ccc(O)c2O)C(CN)O1.Cl (stereo not shown) [Example 214, 1-Aminomethyl-3-(2,2-dimethylpropyl)-3,4-dihydro-5,6-dihydroxy-1H-2-benzopyran Hydrochloride] | 0.085 | 
6.10 |  | 114 | 7.70 | 7.70 |  |  | NCC1OC(CC2CCCC2)Cc2c1ccc(O)c2O (stereo not shown) [Example 215] | 0.55 | 
5.43 |  | 114 | 8.30 | 8.52 |  |  | CC(C)CC1Cc2c(ccc(O)c2O)C(CN)O1 (stereo not shown) [Example 216] | 0.07 | 
< 5.00 |  | 84 | 7.10 | 7.05 |  |  | NCC1OC2(CCCCCCCC2)Cc2c1ccc(O)c2O (stereo not shown) [Example 221] | > 3 | 
5.28 |  | 70 | 6.89 | 6.12 |  |  | Oc1ccc2c(c1O)CC1(CCCCCCCCC1)C1=C2CNCC1 [Example 240] | > 3 | 
5.54 |  | 48 | 6.40 | 6.40 |  |  | Oc1ccc2c(c1O)CC1(CCCCCCCC1)C1=C2CNCC1 [Example 241] | > 3 | 
6.22 |  | 32 | 6.70 | 7.30 |  |  | CN1CCC2=C(C1)c1ccc(O)c(O)c1CC21CCCCCC1 [Example 249] | 0.12 | 
